Measurements from article PMC8329197, “Compounds targeting OSBPL7 increase ABCA1-dependent cholesterol efflux preserving kidney function in two models of kidney disease” (Nature Communications, 2021).
Several values for one entry are separate records, joined by “and”; a condition that tells them apart may be missing. Equal entries are not always repeated.

Assays:
[1] = test system: Adriamycin (ADR)-induced nephropathy in Balb/c mice; assay: ADR nephropathy: kidney cortex lipids (cholesterol ester, total cholesterol, triglycerides, Oil-red O); assay type: in vivo, mouse
Method: OCT embedded kidney cortex samples were cryosectioned at 4 μm thickness and stained with Oil-Red O-isopropanol solution (Electron Microscopy Science, PA) diluted 6:4 in water, and then counterstained with Hematoxylin Harris Hg Free (VWR, PA). Sections were then evaluated using a light microscope (Olympus BX 41, Tokyo, Japan).
Snap frozen kidney cortex samples were homogenized in 2 mM potassium phosphate buffer, pH 7, (10 µl buffer/mg tissue) using a glass douncer on ice. 100 μl of the homogenate were mixed thoroughly with 1 ml of hexane:isopropanol (3:2;v:v) per volume of tissue homogenate. The aqueous (pellet) and organic (supernatant) phases were separated by centrifugation at 12,000 × g for 5 min. Pellets (aqueous phase) were dried, reconstituted in 8 M urea, 0.1% SDS, 0.1 M NaOH, and total proteins were quantified by the BCA method (Thermofisher). The organic phase was dried by exposure to nitrogen. Lipids were then reconstituted in 100 µl isopropanol:NP-40 (9:1;v:v). Triglyceride content was assayed using a colorimetric kit according to the manufacturer’s instructions (Cayman Chemical USA). Total cholesterol and CE content were assayed using an enzymatic fluorometric method. For total cholesterol measurement, extracts were diluted 1:100 in assay buffer (100 mM potassium phosphate, 50 mM NaCl, 5 mM cholic acid, 0.1% Triton […], pH 7.4) containing cholesterol oxidase (1 U/ml), cholesterol esterase (1 U/ml), horseradish peroxidase (1 U/ml), and Amplex Red (75 µM). The reactions were incubated at 37 °C for 30 min in a black opaque 96-well plate (Greiner) and fluorescence was measured in a microplate reader (Spectramax i3X, Molecular Devices) at 530 nm excitation and 580 emission.
For CE determination, 150 µl of the assay buffer described above, supplemented with bovine liver catalase (45 U/ml) and cholesterol oxidase (1 U/ml), was added to 25 μl of sample and incubated overnight at 37 °C to deplete free cholesterol leaving only cholesterol esters. Then, 75 µl of cholesterol ester detection reagent (1 U/ml cholesterol oxidase, 4 U/ml cholesterol esterase, 24 U/ml horseradish peroxidase, 300 µM Amplex Red) was added. The reaction was incubated at 37 °C for 30 min and the fluorescence signal was measured as described above. Internal standards included samples containing 1 mM of cholesterol and 5 μM of cholesterol oleate in order to verify the completeness of the enzymatic decomposition of free cholesterol as well as assay sensitivity and specificity.

[2] = test system: Adriamycin (ADR)-induced nephropathy in Balb/c mice; assay: ADR nephropathy: WBC, hemoglobin, hematocrit, ALT, AST; assay type: in vivo, mouse
Col4a3 KO mice = assay: Alport syndrome model: mesangial expansion score in PAS-stained kidney sections; assay type: in vivo, mouse; conditions: age 8 weeks, Cpd G 100 mg/Kg/day
Method: Formalin-fixed paraffin-embedded kidney cortex sections 4 μm thick were stained with Periodic acid-Schiff (PAS). The slides were analyzed by a renal pathologist in a double-blind design. Glomerular sclerosis, (global and segmental), podocyte hypertrophy and podocyte hyperplasia were expressed as the percentage of glomeruli found with these abnormalities. Tubular microcysts and interstitial inflammation were scored on a 0–4 scale where 0 = 0%, 0.5 = 1–10%, 1 = 11–25%, 2: 26–50 %, 3: 51–75%, and 4 = more than 75% damage.

[3] = test system: Adriamycin (ADR)-induced nephropathy in Balb/c mice; assay: Adriamycin-induced nephropathy, main study: albumin/creatinine ratio and body weight
[4] = test system: Adriamycin (ADR)-induced nephropathy in Balb/c mice; assay: ADR nephropathy: liver total cholesterol, cholesterol esters, triglycerides; assay type: in vivo, mouse; conditions: ADR model; individual animals
[5] = ADR-induced nephropathy, 28 days treatment, 25th quartile
[6] = ADR-induced nephropathy, 28 days treatment, 75th quartile
[7] = ADR-induced nephropathy, 28 days treatment, group maximum
[8] = ADR-induced nephropathy, 28 days treatment, group median
[9] = ADR-induced nephropathy, 28 days treatment, group minimum
[10] = ADR-induced nephropathy, 28 days treatment, individual mouse values
[11] = 28 days after ADR, Cpd G 100 mg/Kg

SMILES: O=C(N[C@@H]1CCCC[C@H]1O)c1cnc(OCC(F)(F)F)c(-c2ccc(Cl)c(Cl)c2)c1 [Cpd G]
- KIDNEY CORTEX TOTAL CHOLESTEROL ([1]; ADR model, individual animals): 79.82 nmol Chol./mg protein and 76.54 nmol Chol./mg protein and 118.96 nmol Chol./mg protein and 209.77 nmol Chol./mg protein and 137.06 nmol Chol./mg protein and 201.43 nmol Chol./mg protein and 118.77 nmol Chol./mg protein and 118.29 nmol Chol./mg protein and 88.73 nmol Chol./mg protein and 117.18 nmol Chol./mg protein
- KIDNEY CORTEX TRIGLYCERIDES ([1]; ADR model, individual animals): 45.04 nmol Triglyceride /mg protein and 65 nmol Triglyceride /mg protein and 36.98 nmol Triglyceride /mg protein and 31.32 nmol Triglyceride /mg protein and 30.95 nmol Triglyceride /mg protein and 56.24 nmol Triglyceride /mg protein and 28.95 nmol Triglyceride /mg protein and 62.65 nmol Triglyceride /mg protein and 57.76 nmol Triglyceride /mg protein
- Cholesterol ester content in kidneys from individual animals ([1]; ADR, day 28 of treatment, paired with ACR of same animal): 0.13 nmol CE/mg and 0.19 nmol CE/mg and 0.14 nmol CE/mg and 0.15 nmol CE/mg and 0.03 nmol CE/mg and 0.01 nmol CE/mg and 0.17 nmol CE/mg
- Cholesterol esters in renal cortex, ADR model ([1]; Cpd G 28 days after ADR): reduced accumulation of cholesterol esters
- Renal CE content, Median ([1]; mice challenged with ADR, treated for 28 days, group median): 0.975 nmol CE/ mg protein
- Renal CE content (cholesterol ester, normalized to total proteins in kidney cortexes) ([1]; mice challenged with ADR, treated for 28 days, individual animals): 0.88 nmol CE/ mg protein and 1.16 nmol CE/ mg protein and 1.07 nmol CE/ mg protein and 1.59 nmol CE/ mg protein and 0.87 nmol CE/ mg protein and 0.53 nmol CE/ mg protein and 0.78 nmol CE/ mg protein and 0.58 nmol CE/ mg protein and 1.14 nmol CE/ mg protein and 1.47 nmol CE/ mg protein
- ADR-induced increase of ALT and AST ([2]; 28 days): partially attenuated
- ALT, Median (IQR) ([2]; ADR-induced nephropathy): 213 (105-239) U/L
- ALT, Range ([2]; ADR-induced nephropathy): 90-317 U/L
- AST, Median (IQR) ([2]; ADR-induced nephropathy): 213 (156-220) U/L
- AST, Range ([2]; ADR-induced nephropathy): 124-401 U/L
- HTC, Median (IQR) ([2]; ADR-induced nephropathy): 51 (48-52) %
- HTC, Range ([2]; ADR-induced nephropathy): 46-57%
- Hgb, Median (IQR) ([2]; ADR-induced nephropathy): 13 g/dL
- Hgb, Range ([2]; ADR-induced nephropathy): 12.2 to 13.7 g/dL
- WBC, Median (IQR) ([2]; ADR-induced nephropathy): 5.2 (3.4-6.5) x103cells/µL
- WBC, Range ([2]; ADR-induced nephropathy): 2.5-6.5 x103cells/µL
- HTC, QR(25) [2, 5]: 49.25%
- Hgb, QR(25) [2, 5]: 12.6 g/dL
- WBC, QR(25) [2, 5]: 3.85 x 10^3 cells/ul
- HTC, QR(75) [2, 6]: 51.75%
- Hgb, QR(75) [2, 6]: 13.4 g/dL
- WBC, QR(75) [2, 6]: 6.425 x 10^3 cells/ul
- HTC, Max [2, 7]: 57%
- Hgb, Max [2, 7]: 13.7 g/dL
- WBC, Max [2, 7]: 9.8 x 10^3 cells/ul
- HTC, Median [2, 8]: 51%
- Hgb, Median [2, 8]: 13.1 g/dL
- WBC, Median [2, 8]: 5.45 x 10^3 cells/ul
- HTC, Min [2, 9]: 46%
- Hgb, Min [2, 9]: 12.2 g/dL
- WBC, Min [2, 9]: 2.5 x 10^3 cells/ul
- Alanine Aminotransferase (ALT) [2, 10]: 220 U/dL and 105 U/dL and 213 U/dL and 156 U/dL and 239 U/dL and 317 U/dL and 90 U/dL
- Aspartate Aminotransferase (AST) [2, 10]: 217 U/dL and 156 U/dL and 401 U/dL and 213 U/dL and 220 U/dL and 124 U/dL
- Hematocrit HTC [2, 10]: 57% and 51% and 54% and 47% and 46% and 49% and 52% and 50%
- White Blood Cells WBC [2, 10]: 9.8 x 10^3 cells/ul and 5.5 x 10^3 cells/ul and 6.2 x 10^3 cells/ul and 2.5 x 10^3 cells/ul and 5.2 x 10^3 cells/ul and 6.5 x 10^3 cells/ul and 3.4 x 10^3 cells/ul and 5.4 x 10^3 cells/ul and 8.9 x 10^3 cells/ul
- MESANGIAL EXPANSION (scale 1-5), Median (Col4a3 KO mice): 2
- MESANGIAL EXPANSION (scale 1-5) (Col4a3 KO mice; single animals): 2 and 2.5 and 1.5
- Effect on weight loss ([3]; 28 days after ADR): substantially reduced weight loss
- Mice that showed no weight loss [3, 11]: 7 out of 10
- Weight loss of the remaining 3 mice [3, 11]: less than 5%
- ACR, median ([3]; 28 days after ADR, Cpd A 30, Cpd G 100, Cpd C 10 mg/Kg, group median): 0.6 mg albumin/mg creatinine and 0.576 mg albumin/mg creatinine
- Weight (d28) ([3]; animal weight when therapy finished, single animals): 20 and 21 and 20.5 and 16 and 19 and 17
- Weight Change (as % of weight at day 0), Median ([3]; day 28 after ADR, Cpd A 30, Cpd G 100, Cpd C 10 mg/Kg): 0%
- Weight Change (as % of weight at day 0) ([3]; day 28 after ADR, Cpd A 30, Cpd G 100, Cpd C 10 mg/Kg, single animals): 5% and 2.5% and 0% and -9.1% and -5%
- ACR values (mg Albumin / mg Creatinine) ([3]; spot urine 28 days after ADR, oral daily Cpd A 30, Cpd G 100, Cpd C 10 mg/Kg, single animals): 3.053 mg Albumin / mg Creatinine and 3.33 mg Albumin / mg Creatinine and 0.105 mg Albumin / mg Creatinine and 0.292 mg Albumin / mg Creatinine and 4.643 mg Albumin / mg Creatinine and 4.983 mg Albumin / mg Creatinine and 0.09 mg Albumin / mg Creatinine and 0.018 mg Albumin / mg Creatinine and 0.86 mg Albumin / mg Creatinine and 0.271 mg Albumin / mg Creatinine
- Times lower ACR ([3]; vs ADR+V, 28 days, Cpd A 30, Cpd G 100 mg/kg/day): 30 times
- LIVER CHOLESTEROL ESTERS [4]: 2.88 nmol CE/ mg protein and 6.03 nmol CE/ mg protein and 6.11 nmol CE/ mg protein and 1.54 nmol CE/ mg protein and 4.33 nmol CE/ mg protein and 2.97 nmol CE/ mg protein and 3.06 nmol CE/ mg protein
- LIVER TOTAL CHOLESTEROL [4]: 118 nmol Cholesterol/ mg protein and 122 nmol Cholesterol/ mg protein and 97.7 nmol Cholesterol/ mg protein and 114 nmol Cholesterol/ mg protein and 146 nmol Cholesterol/ mg protein
- LIVER TRIGLICERIDES [4]: 35 nmol Triglycerides/ mg protein and 30 nmol Triglycerides/ mg protein and 48.4 nmol Triglycerides/ mg protein and 51 nmol Triglycerides/ mg protein and 39 nmol Triglycerides/ mg protein
